Assays:
[1] = solid, ambient conditions / storage
Description: PXRD diffractograms were acquired on a PANalytical X'Pert Pro diffractometer using Ni-filtered Cu Ka (45 kV/40 mA) radiation and a step size of 0.03° 2θ and X'celerator™ RTMS (Real Time Multi-Strip) detector. Configuration on the incidental beam side: variable divergence slits (10 mm irradiated length), 0.04 rad Soller slits, fixed anti-scatter slit (0.50°), and 10 mm beam mask. Configuration on the diffracted beam side: variable anti-scatter slit (10 mm observed length) and 0.04 rad Soller slit. Samples were mounted flat on zero-background Si wafers.
PXRD diffractograms were acquired on a Bruker D8 Advance system (SN:2631) using Cu Ka (40 kV/40 mA) radiation and a step size of 0.03° 2θ and LynxEye detector. Configuration on the incident beam side: Goebel mirror, mirror exit slit (0.2 mm), 2.5 deg Soller slits, beam knife. Configuration on the diffracted beam side: anti-scatter slit (8 mm) and 2.5 deg. Soller slit. Samples were mounted flat on zero-background Si wafers.

[2] = target: CB1 receptor (Homo sapiens, UniProt P21554); settings: cited from earlier work
[3] = Solubility of the cannabinol starting material in various solvents
[4] = target: cannabinoid G-protein coupled receptor CB2 (Homo sapiens, UniProt P34972); settings: cited from earlier work
Chain of cannabinoid G-protein coupled receptor CB2 (P34972 whole entry): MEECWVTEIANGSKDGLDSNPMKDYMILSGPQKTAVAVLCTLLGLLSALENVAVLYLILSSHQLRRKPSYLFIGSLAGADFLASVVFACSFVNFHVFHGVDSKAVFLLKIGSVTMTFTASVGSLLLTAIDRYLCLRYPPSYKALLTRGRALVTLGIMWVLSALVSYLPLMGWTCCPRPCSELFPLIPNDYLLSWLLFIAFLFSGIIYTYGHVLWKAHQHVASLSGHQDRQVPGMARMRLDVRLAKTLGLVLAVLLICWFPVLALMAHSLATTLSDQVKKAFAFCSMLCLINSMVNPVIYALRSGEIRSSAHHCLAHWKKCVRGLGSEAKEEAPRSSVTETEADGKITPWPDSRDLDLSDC

Chain of CB1 receptor (P21554 whole entry): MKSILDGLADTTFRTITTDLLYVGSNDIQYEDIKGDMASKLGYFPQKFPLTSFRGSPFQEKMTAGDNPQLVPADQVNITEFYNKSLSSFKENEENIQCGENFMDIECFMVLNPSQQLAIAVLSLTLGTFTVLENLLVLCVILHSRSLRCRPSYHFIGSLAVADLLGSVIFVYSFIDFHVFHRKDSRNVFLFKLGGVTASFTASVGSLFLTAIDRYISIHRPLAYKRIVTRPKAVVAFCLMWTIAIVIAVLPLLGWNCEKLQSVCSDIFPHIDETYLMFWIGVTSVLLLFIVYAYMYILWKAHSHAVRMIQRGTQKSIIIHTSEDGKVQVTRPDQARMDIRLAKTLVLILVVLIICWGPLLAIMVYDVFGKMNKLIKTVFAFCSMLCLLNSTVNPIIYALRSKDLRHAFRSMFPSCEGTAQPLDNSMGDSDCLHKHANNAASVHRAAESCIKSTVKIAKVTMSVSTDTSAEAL

Compound | physical stability by PXRD [1] | affinity for CB1 [2] | solubility ([3]; water (1% methanol)) [mg/mL] | solubility ([3]; water (1% methanol), 40 °C) [mg/mL] | solubility ([3]; water (denatured with 1% MeOH)) [mg/mL] | binding to CB2 [4] | affinity for CB2 receptor relative to THC (fold lower) ([4]; relative to THC)
CCCCCc1cc(O)c2c(c1)OC(C)(C)c1ccc(C)cc1-2.O=C(O)C1CCCN1 [Mono-L-Proline Cocrystal Group C] | physically stable by PXRD for three days at ambient | – | – | – | – | – | –
CCCCCc1cc(O)c2c(c1)OC(C)(C)c1ccc(C)cc1-2 [cannabinol, 6,6,9-Trimethyl-3-pentyl-benzo[c]chromen-1-ol] | – | minimal affinity | < 20 | < 20 | < 20 | preferentially binds | about 3 fold
